Data: the NIST ThermoML archive (doi:10.1016/j.jct.2006.03.008)
Several values for one entry are separate records, joined by “and”; a condition that tells them apart may be missing. Equal entries are not always repeated. ± gives the expanded uncertainty stated by the source.

Conditions: for vapor or sublimation pressure: Closed cell (Static) method; for mass density: Fluid (supercritical or subcritical phases), Bellows volumetry

CC(C)C [2-methylpropane]
Conditions | Critical pressure [kPa] | Critical temperature [K] | mass density | vapor or sublimation pressure
310 K, Liquid | – | – | – | 489.5 ± 1.8 kPa [middle of 6 runs]
405 K, 3464.7 kPa | – | – | 185 ± 15 kg/m3 | –
405 K, 3467.3 kPa | – | – | 199.9 ± 15 kg/m3 and 200 ± 15 kg/m3 | –
405 K, 3468 kPa | – | – | 200 ± 15 kg/m3 | –
405 K, 3468.4 kPa | – | – | 200 ± 15 kg/m3 | –
405 K, 3469.9 kPa | – | – | 264.9 ± 51 kg/m3 | –
405 K, Liquid | – | – | – | 3468.8 ± 5.4 kPa [middle of 6 runs]
406 K, 3523.7 kPa | – | – | 184.9 ± 60 kg/m3 | –
406 K, 3525.7 kPa | – | – | 199.9 ± 60 kg/m3 | –
406 K, 3528.1 kPa | – | – | 264.9 ± 60 kg/m3 | –
406 K, Liquid | – | – | – | 3527 ± 5.5 kPa [middle of 6 runs]
407 K, 3582.1 kPa | – | – | 185.4 ± 60 kg/m3 | –
407 K, 3585 kPa | – | – | 200.3 ± 60 kg/m3 | –
407 K, Liquid | – | – | – | 3585.5 ± 5.6 kPa [middle of 7 runs]
407.5 K, 3613.8 kPa | – | – | 185 ± 13 kg/m3 | –
407.5 K, 3617.5 kPa | – | – | 199.9 ± 13 kg/m3 | –
407.5 K, 3617.7 kPa | – | – | 200.4 ± 13 kg/m3 | –
407.5 K, 3620.6 kPa | – | – | 265 ± 38 kg/m3 | –
407.5 K, Liquid | – | – | – | 3619 ± 5.6 kPa [middle of 6 runs]
407.89 K, 3632.3 kPa | – | – | 184.9 ± 9.4 kg/m3 | –
407.89 K, 3637.6 kPa | – | – | 200.1 ± 20 kg/m3 | –
407.89 K, 3640.5 kPa | – | – | 240 ± 21 kg/m3 | –
407.89 K, 3640.6 kPa | – | – | 250 ± 22 kg/m3 | –
407.89 K, 3640.8 kPa | – | – | 250.2 ± 22 kg/m3 | –
407.89 K, 3640.9 kPa | – | – | 241.4 ± 30 kg/m3 | –
407.89 K, 3641.3 kPa | – | – | 250.5 ± 31 kg/m3 | –
407.89 K, 3644.5 kPa | – | – | 263.7 ± 21 kg/m3 | –
407.89 K, 3644.6 kPa | – | – | 264.9 ± 16 kg/m3 | –
408 K, 3635.8 kPa | – | – | 184.1 ± 6.8 kg/m3 | –
408 K, 3638.1 kPa | – | – | 184.9 ± 9 kg/m3 | –
408 K, 3643.7 kPa | – | – | 200 ± 22 kg/m3 | –
408 K, 3644.2 kPa | – | – | 200.4 ± 20 kg/m3 | –
408 K, 3645.6 kPa | – | – | 220 ± 19 kg/m3 | –
408 K, 3646.4 kPa | – | – | 227.5 ± 19 kg/m3 | –
408 K, 3646.6 kPa | – | – | 240 ± 19 kg/m3 | –
408 K, 3646.8 kPa | – | – | 220.1 ± 19 kg/m3 | –
408 K, 3647.4 kPa | – | – | 249.9 ± 24 kg/m3 | –
408 K, 3652.4 kPa | – | – | 265.5 ± 11 kg/m3 | –
409 K, 3692.1 kPa | – | – | 184.7 ± 5.5 kg/m3 | –
409 K, 3692.8 kPa | – | – | 184.9 ± 5.8 kg/m3 | –
409 K, 3702.2 kPa | – | – | 200 ± 7.4 kg/m3 | –
409 K, 3702.8 kPa | – | – | 200.4 ± 7.3 kg/m3 | –
409 K, 3708.3 kPa | – | – | 219.8 ± 12 kg/m3 | –
409 K, 3708.5 kPa | – | – | 219.9 ± 12 kg/m3 | –
409 K, 3708.9 kPa | – | – | 220.4 ± 12 kg/m3 | –
409 K, 3709.7 kPa | – | – | 224.2 ± 12 kg/m3 | –
409 K, 3710.5 kPa | – | – | 227.4 ± 11 kg/m3 | –
409 K, 3713.6 kPa | – | – | 239.9 ± 11 kg/m3 | –
409 K, 3717.7 kPa | – | – | 250 ± 5.5 kg/m3 | –
409 K, 3718.4 kPa | – | – | 250.4 ± 5.5 kg/m3 | –
409 K, 3729 kPa | – | – | 265 ± 4.9 kg/m3 | –
410 K, 3745.3 kPa | – | – | 185 ± 4.5 kg/m3 | –
410 K, 3757.5 kPa | – | – | 200 ± 4.7 kg/m3 | –
410 K, 3758.2 kPa | – | – | 200 ± 4.7 kg/m3 | –
410 K, 3764.3 kPa | – | – | 210 ± 6.1 kg/m3 | –
410 K, 3769.4 kPa | – | – | 220 ± 6.8 kg/m3 | –
410 K, 3772.2 kPa | – | – | 227.4 ± 6.8 kg/m3 | –
410 K, 3772.5 kPa | – | – | 228.1 ± 6.8 kg/m3 | –
410 K, 3779.4 kPa | – | – | 240 ± 5.7 kg/m3 | –
410 K, 3785.9 kPa | – | – | 250 ± 3.9 kg/m3 | –
410 K, 3786.3 kPa | – | – | 250.4 ± 3.9 kg/m3 | –
410 K, 3802.3 kPa | – | – | 265 ± 3.5 kg/m3 | –
410 K, 3802.8 kPa | – | – | 265.2 ± 3.4 kg/m3 | –
Liquid, Direct measurement | 3639 ± 4.8 | – | – | –
Liquid, Visual observation in an unstirred cell | – | 407.88 ± 0.062 | – | –
